ChEMBL document CHEMBL1201862, “PubChem BioAssay data set” (2004)
Activity calls are given as the source filed them.

Experiments:
HEK293 = assay: EBV LMP1 TES2 canonical NF-kB signalling blockers – cell-based, HEK293, luciferase, cherry-pick, dose response (AID 588343); format: functional; conditions: Homo sapiens
[1] = blockers of bursicon-stimulated LGR2 cAMP reporter – cell-based, HEK293, CRE-luciferase reporter, cherry pick, set 2, dose response (AID 743343); format: functional;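 note: transfected cells were stimulated with diluted bursicon conditioned medium after compound addition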
[2] = alpha-synuclein stem-loop luciferase translation blockers – H4 neuroglioma cells, luminescence, confirmation (AID 1988); format: functional, cell-based
[3] = A549 cell cytotoxicity, dose response, cytotoxicity control, plate reader, cherry-pick, antagonist series (AID 743412); format: functional, cell-based
[4] = biological target: T1, Heat shock factor protein 1 (Mus musculus, UniProt P38532); assay: decrease of HSF1-responsive luciferase luminescence – cell-based, NIH3T3, dose retest, confirmation (AID 2382); format: functional;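 note: NIH3T3 fibroblasts with HSF1-driven luciferase reporter stressed by proteasome inhibitor MG132; luminescence from HSF1-driven luciferase expression after 8 hours of MG132 stress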
T1 sequence (P38532 whole entry): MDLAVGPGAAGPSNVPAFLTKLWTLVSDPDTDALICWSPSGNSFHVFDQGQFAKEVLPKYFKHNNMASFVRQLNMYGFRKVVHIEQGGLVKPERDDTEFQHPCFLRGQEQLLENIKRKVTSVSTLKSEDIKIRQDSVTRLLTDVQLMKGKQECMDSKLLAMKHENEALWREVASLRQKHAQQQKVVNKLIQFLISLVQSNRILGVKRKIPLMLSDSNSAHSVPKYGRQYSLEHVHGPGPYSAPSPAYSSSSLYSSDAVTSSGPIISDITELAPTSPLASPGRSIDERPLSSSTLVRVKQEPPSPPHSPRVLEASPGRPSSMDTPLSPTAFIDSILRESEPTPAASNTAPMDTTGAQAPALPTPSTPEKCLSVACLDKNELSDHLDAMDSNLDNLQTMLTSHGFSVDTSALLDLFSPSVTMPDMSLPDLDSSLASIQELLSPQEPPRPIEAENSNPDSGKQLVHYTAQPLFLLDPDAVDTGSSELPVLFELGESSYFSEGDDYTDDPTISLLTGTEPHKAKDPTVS

[5] = luciferase reporter signal suppression in cells – H4 neuroglioma cells, luminescence, dose response (AID 1990); format: functional, cell-based
[6] = viability loss in HEK293 cells – cell-based, plate reader, cherry-picked samples, cytotoxicity control, dose response (AID 743446); format: functional
[7] = blockade of melanocortin 4 receptor signaling – cell-based, plate reader, cherry pick, counter-screen for LGR2 antagonist project, dose response (AID 743444); format: functional;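 note: transfected HEK 293 cells stimulated with alpha-MSH peptide; potency of inhibitors of the alpha-MSH evoked signal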
[8] = Luminescence Cell-Based Dose Response HTS to Identify Inhibitors of 5'UTR Stem-Loop Driven Prion Protein mRNA Translation in H4 Neuroglioblastoma Cells. [Related pubchem assays: 1827 (Project Summary), 1813 (Primary HTS)]; format: functional
[9] = biological target: T2, Histone-lysine N-methyltransferase NSD2 (Homo sapiens, UniProt O96028); format: biochemical
T2 sequence (O96028 whole entry): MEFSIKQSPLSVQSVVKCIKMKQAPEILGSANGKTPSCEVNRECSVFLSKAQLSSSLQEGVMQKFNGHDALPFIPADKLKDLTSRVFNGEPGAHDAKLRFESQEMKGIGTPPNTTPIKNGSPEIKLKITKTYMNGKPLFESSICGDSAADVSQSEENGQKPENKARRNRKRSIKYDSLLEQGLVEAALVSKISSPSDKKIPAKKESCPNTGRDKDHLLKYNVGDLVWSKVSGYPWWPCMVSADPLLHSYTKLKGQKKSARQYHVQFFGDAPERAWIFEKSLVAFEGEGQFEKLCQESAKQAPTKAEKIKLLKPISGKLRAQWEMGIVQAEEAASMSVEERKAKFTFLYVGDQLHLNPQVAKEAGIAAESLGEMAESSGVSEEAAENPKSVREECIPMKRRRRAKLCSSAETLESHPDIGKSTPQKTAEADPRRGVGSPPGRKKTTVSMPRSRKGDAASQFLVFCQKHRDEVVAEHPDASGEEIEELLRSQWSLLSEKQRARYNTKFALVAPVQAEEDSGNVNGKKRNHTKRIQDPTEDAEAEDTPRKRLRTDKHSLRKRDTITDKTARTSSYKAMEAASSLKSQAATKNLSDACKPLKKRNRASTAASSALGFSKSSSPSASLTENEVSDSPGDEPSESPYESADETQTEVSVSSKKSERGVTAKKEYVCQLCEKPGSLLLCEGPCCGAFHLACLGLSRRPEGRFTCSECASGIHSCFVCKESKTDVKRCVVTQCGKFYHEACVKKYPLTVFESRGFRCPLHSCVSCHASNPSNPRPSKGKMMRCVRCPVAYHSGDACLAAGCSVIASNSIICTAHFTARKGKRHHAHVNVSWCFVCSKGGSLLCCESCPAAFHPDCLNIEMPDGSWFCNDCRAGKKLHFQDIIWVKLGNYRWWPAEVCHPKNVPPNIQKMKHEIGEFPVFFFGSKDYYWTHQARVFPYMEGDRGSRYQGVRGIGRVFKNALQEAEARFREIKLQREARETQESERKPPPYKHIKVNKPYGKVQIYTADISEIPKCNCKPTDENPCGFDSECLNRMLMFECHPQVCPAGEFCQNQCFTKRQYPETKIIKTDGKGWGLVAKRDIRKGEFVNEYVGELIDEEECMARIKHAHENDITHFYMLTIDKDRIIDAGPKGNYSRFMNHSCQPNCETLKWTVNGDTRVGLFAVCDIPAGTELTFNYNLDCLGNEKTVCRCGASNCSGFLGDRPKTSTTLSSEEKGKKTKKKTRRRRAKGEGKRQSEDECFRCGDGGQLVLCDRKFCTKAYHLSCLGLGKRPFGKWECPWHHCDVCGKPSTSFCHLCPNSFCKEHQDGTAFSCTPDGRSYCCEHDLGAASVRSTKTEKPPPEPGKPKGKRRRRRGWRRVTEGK

Nonstructural protein 1 = Nonstructural protein 1 (Influenza A virus, UniProt Q194T2); format: functional, Influenza A virus (A/California/07/2009(H1N1))
[10] = biological target: Ras and Rab interactor 1/Tyrosine-protein kinase ABL1 (Homo sapiens, UniProt P00519+Q13671); assay: biochemical; format: functional;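 note: biochemical TR-FRET dose-response test measuring inhibition of binding between Rin1 and Abl proteins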
Cytochrome P450 2C9 = Cytochrome P450 2C9 (Homo sapiens, UniProt P11712)
[11] = biological target: 26S proteasome non-ATPase regulatory subunit 14 (Homo sapiens, UniProt O00487); assay: inhibition of proteasome subunit RPN11 – biochemical, fluorescence polarization, uHTS hits, confirmation (AID 602368); format: functional
[12] = biological target: 72 kDa type IV collagenase (Homo sapiens, UniProt P08253); assay: Dose Response validation of uHTS RPN11 inhibitor hits using a MMP-2 Fluorescence assay.; format: functional
Prothrombin = Prothrombin (Bos taurus, UniProt P00735); assay: thrombin protease inhibitors – biochemical, fluorescence polarization, uHTS hits, dose response (AID 602369); format: functional
Cytochrome P450 2C19 = Cytochrome P450 2C19 (Homo sapiens, UniProt P33261); assay: Cytochrome panel assay with activity outcomes. Panel member name: p450-cyp2c19 Compounds with AC50 equal or less than 10 uM are considered active; format: functional; conditions: read-out: AC50
[13] = biological target: T3, Endoribonuclease toxin MazF (Escherichia coli K-12, UniProt P0AE70); assay: activation of MazEF endoribonuclease cleavage – biochemical, fluorescence, single-stranded RNA substrate, uHTS hits, dose response (AID 588481); format: functional
T3 sequence (P0AE70 whole entry): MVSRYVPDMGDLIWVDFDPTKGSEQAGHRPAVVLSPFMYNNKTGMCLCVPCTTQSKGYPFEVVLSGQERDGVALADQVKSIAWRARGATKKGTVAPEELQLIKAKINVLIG

[14] = biological target: T3, Endoribonuclease toxin MazF; assay: substrate-only fluorescence increase artefacts – biochemical, single-stranded RNase substrate, counter-screen for MazEF activator project, dose response (AID 588502); format: functional
Trypsin = Trypsin (Sus scrofa, UniProt P00761); assay: trypsin protease activity blockade – biochemical, quenched peptide fluorescence, cherry-pick, selectivity assay for Rce1 protease inhibitor project, dose response (AID 488789)
CAAX prenyl protease 2 = biological target: T4, CAAX prenyl protease 2 (Homo sapiens, UniProt Q9Y256); assay: inhibition of Ras-converting CAAX protease Rce1 – biochemical, yeast membranes, quenched-peptide fluorescence, cherry-pick, dose response (AID 588849)
T4 sequence (Q9Y256 whole entry): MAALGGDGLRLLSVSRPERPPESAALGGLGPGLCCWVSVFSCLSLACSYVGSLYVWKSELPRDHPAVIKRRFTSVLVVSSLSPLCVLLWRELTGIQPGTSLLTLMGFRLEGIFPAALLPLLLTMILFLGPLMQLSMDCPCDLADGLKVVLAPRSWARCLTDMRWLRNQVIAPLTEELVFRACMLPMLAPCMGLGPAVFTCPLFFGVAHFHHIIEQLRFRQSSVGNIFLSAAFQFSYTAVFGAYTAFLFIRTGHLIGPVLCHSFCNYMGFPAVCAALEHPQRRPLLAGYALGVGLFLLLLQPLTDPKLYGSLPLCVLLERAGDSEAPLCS

Chain of Ras and Rab interactor 1/Tyrosine-protein kinase ABL1 (P00519 whole entry): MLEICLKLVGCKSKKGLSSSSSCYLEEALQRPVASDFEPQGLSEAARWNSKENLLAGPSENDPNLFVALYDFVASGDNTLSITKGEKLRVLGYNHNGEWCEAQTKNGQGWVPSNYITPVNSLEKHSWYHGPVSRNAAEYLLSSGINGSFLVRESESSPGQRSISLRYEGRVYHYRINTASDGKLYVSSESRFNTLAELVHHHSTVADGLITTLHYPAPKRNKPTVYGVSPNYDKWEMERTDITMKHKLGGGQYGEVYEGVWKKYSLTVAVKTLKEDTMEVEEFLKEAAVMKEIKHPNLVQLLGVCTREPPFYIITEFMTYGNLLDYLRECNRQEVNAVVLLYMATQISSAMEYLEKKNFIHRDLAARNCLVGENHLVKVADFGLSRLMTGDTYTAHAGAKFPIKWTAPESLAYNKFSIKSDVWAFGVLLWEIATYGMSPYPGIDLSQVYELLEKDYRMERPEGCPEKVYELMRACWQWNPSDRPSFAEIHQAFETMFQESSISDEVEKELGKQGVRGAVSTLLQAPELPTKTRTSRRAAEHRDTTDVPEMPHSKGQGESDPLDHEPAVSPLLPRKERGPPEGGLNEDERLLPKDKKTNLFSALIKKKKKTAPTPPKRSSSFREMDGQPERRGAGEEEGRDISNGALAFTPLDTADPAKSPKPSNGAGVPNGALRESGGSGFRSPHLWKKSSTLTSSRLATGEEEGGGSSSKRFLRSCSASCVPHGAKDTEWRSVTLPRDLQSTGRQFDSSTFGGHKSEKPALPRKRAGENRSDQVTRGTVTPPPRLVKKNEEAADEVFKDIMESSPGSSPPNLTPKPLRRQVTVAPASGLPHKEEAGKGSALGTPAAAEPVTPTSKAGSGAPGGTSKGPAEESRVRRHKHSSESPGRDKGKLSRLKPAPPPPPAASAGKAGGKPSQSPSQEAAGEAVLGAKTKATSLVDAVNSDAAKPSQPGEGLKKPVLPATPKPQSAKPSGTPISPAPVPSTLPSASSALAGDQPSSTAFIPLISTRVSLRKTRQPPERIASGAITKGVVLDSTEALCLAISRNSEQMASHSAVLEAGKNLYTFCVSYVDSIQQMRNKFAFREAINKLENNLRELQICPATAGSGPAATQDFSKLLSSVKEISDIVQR
Chain of Ras and Rab interactor 1/Tyrosine-protein kinase ABL1 (Q13671 whole entry): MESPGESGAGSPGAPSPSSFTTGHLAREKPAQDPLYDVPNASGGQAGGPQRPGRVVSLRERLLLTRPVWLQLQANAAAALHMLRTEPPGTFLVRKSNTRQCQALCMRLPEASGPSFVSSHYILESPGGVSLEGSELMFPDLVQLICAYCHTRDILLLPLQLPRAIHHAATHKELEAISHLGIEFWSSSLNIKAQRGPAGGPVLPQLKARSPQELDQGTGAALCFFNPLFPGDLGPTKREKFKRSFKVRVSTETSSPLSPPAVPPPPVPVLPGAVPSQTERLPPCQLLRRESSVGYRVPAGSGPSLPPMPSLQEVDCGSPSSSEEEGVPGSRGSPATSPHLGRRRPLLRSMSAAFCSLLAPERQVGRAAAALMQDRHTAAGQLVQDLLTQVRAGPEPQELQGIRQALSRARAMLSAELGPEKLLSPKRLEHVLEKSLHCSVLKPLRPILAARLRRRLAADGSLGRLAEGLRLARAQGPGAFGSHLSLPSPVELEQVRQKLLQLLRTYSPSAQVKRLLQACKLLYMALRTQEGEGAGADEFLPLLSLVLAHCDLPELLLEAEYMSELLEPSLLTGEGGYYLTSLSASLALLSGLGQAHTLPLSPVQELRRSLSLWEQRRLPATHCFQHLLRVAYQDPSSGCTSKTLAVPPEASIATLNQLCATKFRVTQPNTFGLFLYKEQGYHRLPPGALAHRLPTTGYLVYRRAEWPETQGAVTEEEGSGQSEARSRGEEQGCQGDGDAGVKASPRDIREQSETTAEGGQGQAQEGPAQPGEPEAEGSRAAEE
Chain of 72 kDa type IV collagenase (P08253 whole entry): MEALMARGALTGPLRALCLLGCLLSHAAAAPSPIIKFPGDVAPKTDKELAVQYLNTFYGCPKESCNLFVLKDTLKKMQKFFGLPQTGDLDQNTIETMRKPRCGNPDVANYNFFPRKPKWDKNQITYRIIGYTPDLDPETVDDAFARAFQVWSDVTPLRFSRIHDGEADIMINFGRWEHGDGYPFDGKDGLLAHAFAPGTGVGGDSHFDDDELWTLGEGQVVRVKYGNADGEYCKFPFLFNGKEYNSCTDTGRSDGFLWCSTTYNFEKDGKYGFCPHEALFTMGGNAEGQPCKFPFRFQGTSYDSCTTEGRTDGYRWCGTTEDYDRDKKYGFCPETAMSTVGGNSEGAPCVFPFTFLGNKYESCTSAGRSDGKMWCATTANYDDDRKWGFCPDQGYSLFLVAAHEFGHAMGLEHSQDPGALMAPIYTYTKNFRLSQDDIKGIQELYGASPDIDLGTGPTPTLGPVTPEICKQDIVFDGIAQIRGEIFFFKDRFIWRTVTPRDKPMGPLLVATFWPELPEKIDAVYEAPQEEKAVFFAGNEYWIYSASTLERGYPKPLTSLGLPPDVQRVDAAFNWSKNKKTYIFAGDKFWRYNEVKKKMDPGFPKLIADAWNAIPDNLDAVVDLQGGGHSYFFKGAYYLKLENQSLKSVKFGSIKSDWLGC
Chain of Cytochrome P450 2C19 (P33261 whole entry): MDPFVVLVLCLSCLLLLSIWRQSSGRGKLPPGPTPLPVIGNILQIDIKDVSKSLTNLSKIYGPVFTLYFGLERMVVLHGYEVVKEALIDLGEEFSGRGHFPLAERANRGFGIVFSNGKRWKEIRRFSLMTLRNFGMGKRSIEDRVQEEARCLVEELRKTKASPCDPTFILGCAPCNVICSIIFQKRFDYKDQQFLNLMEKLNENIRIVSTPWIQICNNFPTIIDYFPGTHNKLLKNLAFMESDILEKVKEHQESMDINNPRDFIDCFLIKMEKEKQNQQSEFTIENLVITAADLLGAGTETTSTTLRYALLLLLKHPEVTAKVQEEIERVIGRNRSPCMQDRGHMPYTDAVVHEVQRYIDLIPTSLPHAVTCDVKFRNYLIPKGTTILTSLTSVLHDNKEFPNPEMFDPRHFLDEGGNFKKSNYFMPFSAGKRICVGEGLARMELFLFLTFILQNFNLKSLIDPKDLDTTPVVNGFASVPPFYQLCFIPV
Chain of Trypsin (P00761 whole entry): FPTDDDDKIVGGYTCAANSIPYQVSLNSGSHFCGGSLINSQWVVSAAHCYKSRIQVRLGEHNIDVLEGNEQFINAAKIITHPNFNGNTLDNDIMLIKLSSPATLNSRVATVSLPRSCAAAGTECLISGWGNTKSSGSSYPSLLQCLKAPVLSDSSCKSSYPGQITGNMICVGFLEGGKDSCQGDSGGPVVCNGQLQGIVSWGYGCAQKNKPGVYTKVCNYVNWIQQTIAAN
Chain of Cytochrome P450 2C9 (P11712 whole entry): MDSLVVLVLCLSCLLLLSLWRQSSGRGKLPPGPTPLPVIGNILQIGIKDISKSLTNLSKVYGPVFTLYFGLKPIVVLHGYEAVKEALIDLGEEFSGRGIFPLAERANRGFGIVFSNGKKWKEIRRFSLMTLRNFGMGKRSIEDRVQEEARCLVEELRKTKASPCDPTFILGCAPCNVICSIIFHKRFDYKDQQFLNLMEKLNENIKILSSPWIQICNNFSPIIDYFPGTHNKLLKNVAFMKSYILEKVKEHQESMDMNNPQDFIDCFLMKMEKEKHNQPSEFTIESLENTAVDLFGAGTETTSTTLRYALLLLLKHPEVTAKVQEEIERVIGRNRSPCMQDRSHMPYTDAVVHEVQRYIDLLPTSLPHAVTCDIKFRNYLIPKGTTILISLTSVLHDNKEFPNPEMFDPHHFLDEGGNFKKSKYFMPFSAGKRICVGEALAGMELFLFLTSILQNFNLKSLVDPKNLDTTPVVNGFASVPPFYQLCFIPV
Chain of Nonstructural protein 1 (Q194T2 whole entry): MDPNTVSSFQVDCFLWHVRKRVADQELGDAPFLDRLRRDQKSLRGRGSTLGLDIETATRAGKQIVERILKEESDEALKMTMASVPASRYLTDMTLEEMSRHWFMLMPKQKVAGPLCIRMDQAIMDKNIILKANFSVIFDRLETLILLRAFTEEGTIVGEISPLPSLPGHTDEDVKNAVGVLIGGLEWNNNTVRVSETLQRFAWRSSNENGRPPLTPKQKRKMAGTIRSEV
Chain of 26S proteasome non-ATPase regulatory subunit 14 (O00487 whole entry): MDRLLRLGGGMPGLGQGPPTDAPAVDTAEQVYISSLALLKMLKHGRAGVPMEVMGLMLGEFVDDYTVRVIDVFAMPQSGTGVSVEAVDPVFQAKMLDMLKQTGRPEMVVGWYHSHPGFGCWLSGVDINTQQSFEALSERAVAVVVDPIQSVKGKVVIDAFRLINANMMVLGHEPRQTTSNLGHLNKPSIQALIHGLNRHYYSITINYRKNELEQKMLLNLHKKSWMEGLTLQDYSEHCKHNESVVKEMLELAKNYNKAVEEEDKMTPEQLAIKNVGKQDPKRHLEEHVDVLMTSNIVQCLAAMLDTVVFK

COc1cccc(-c2nc3cc(N4CCN(C)CC4)ccc3[nH]2)c1
AC50 (HEK293): 0.857 µM (active) | AC50 [1]: 2.55 µM (active) | EC50 [2]: 9.34 µM (inconclusive) | AC50 [3]: > 52 µM (inactive) | EC50 [4]: < 0.16 µM (active) | EC50 [5]: 9.73 µM (inconclusive) | AC50 [6]: > 52 µM (inactive) | AC50 [7]: 1.57 µM (active) | EC50 [8]: 5.7 µM (active)

CC1NC(=O)NC1CCCCCC(=O)Nc1ccc(F)cc1 (centres undefined)
AC50 [9]: 0.113 µM (active) | IC50 (Nonstructural protein 1): 0.979 µM (active) | IC50 [10]: 0.0187 µM (active)

CN(C(=O)c1ccc(NC(=O)Cc2ccc(NC(=O)C3CCN(C(=O)c4ccccc4)CC3)cc2)cc1)C1CC1
IC50 [10]: 0.407 µM (active)

O=C(NN=C1c2ccccc2-c2ccccc21)c1ccccn1
AC50 (Cytochrome P450 2C9): 7.08 µM (inconclusive) | IC50 [11]: 24.4 µM (active) | IC50 [12]: > 100 µM (inactive) | IC50 (Prothrombin): > 100 µM (inactive) | AC50 (Cytochrome P450 2C19): 2.82 µM (inconclusive)

Nc1c(C(=O)Nc2ccccc2)sc2nc3c(c(-c4ccco4)c12)CCC3
EC50 [13]: 11.3 µM (active) | EC50 [14]: > 99 µM (inactive)

COc1ccc(C)c2sc(NC(=O)C3=COCCO3)nc12
AC50 (Trypsin): 18.8 µM (active) | AC50 (CAAX prenyl protease 2): 13.4 µM (active) | EC50 [4]: > 195 µM (not active)

COc1ccc2nc(-c3ccc(C)cc3)cc(O)c2c1
AC50 (HEK293): 2.68 µM (active)
